Laboratory results published in US8648085B2, “1, 5-dihydro-pyrazolo (3, 4-D) pyrimidin-4-one derivatives and their use as PDE9A mudulators for the treatment of CNS disorders” (Boehringer Ingelheim International GmbH, priority 2007, dated 2014).

Tests used:
PDE9A = PDE9A (Homo sapiens, UniProt O76083); experiment: PDE enzymatic activity assay (SPA), PDE9A; type: biochemical; parameters: made in house; host or cells: SF9 insect cells (crude lysate used as enzyme source); conditions: cGMP substrate, for illustrative purposes; for inhibition at 10 µM: 10 micromolar; for IC50: given as ranges
PDE9A, sequence (O76083 whole entry): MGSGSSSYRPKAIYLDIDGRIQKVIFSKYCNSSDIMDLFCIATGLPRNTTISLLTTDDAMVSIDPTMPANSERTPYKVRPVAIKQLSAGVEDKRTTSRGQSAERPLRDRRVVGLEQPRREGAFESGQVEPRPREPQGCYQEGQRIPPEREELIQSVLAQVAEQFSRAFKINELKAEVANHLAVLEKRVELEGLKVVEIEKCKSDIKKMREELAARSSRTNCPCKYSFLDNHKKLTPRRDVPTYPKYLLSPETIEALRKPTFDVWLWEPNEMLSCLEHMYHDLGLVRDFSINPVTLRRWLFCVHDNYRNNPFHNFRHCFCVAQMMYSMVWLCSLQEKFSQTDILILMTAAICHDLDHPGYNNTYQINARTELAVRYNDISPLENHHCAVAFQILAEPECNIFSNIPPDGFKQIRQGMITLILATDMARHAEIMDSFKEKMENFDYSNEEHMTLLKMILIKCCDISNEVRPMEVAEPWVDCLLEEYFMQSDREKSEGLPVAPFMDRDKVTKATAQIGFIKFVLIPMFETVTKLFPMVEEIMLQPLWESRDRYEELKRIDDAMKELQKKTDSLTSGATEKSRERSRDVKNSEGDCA
Experimental: (§1) The PDE enzymatic activity assays were run as SPA, in general according to the protocol of the manufacturer (Amersham Biosciences, product number: TRKQ 7100). As enzyme source, lysate (PBS with 1% Triton X-100 supplemented with protease inhibitors, cell debris removed by centrifugation at 13.000 rpm for 30 min) of SF 9 cell expressing the human PDE of interest was used. The total protein amount included in the assay varied upon infection and production efficacy of the SF9 cells and lay in the range of […].
(§2) In general, the assay conditions were as follows: • total assay volume: 40 μl • protein amount: 0.1-50 ng • substrate concentration (cGMP or cAMP): 20 nM; ˜1 mCi/l • incubation time: 60 min at room temperature • final DMSO concentration: 1%
(§3) The assays were run in 384-well format. The test reagents as well as the enzyme and the substrate were diluted in assay buffer. The assay buffer contained 50 mM Tris, 8.3 mM MgCl2, 1.7 mM EGTA, 0.1% BSA, 0.05% Tween 20; the pH of assay buffer was adjusted to 7.5. In case activity of PDE1C was analysed, 50 nM Calmodulin and 3 mM CaCl2 were included in the assay buffer. In case PDE9 activity was analyzed, the reaction was stopped by applying a PDE9 specific inhibitor (e.g. compounds according to WO2004/099210). PDE1C was analysed with cAMP as substrate, and PDE9 was analyzed with cGMP as substrate.
Calculation of % Inhibition:
The activity of the positive control (minus the negative control=background) is set to 100% and activity in the presence of test compound is expressed relative to these 100%.
Within this setting, an inhibition above 100% might be possible due to the nature of the variation of the positive control within the assay, however, in this case the reported % inhibition had been adjusted to 100%.
(§4) IC50 can be calculated in a conventional way, eventually with the help of GraphPadPrism or other suited software setting the positive control as 100 and the negative control as 0. For calculation of IC50 usually 8 dilutions of the test compound ([…]) are to be selected and tested following the aforementioned protocol.

PDE1C = target: T1, PDE1C (Homo sapiens, UniProt Q14123); experiment: PDE enzymatic activity assay (SPA), PDE1C, cAMP as substrate; type: biochemical; conditions: ratio IC50 PDE1C / IC50 PDE9A; for illustrative purposes
T1 construct: made in house; host or cells: SF9 insect cells (crude lysate used as enzyme source)
Experimental: as §1, §2, §3, §4

SMILES | inhibition at 10 µM (PDE9A) [%] | IC50 (PDE9A) [nM] | Selectivity = IC50 PDE 1C/IC50 PDE9A (both nanomolar) (PDE1C)
Cc1ccncc1-n1ncc2c(=O)[nH]c(Cc3ccccc3OC(F)(F)F)nc21 [Example 1, 1-(4-Methyl-pyridin-3-yl)-6-(2-tri-fluoromethoxy-benzyl)-1,5-dihydro-pyrazolo[3,4-d]pyrimidin-4-one] | 99 | 10 to 500 | 39
Cc1ccccc1-n1ncc2c(=O)[nH]c(Cc3ccccc3OC(F)(F)F)nc21 [Example 2, 1-o-Tolyl-6-(2-trifluoromethoxy-benzyl)-1,5-dihydro-pyrazolo[3,4-d] pyrimidin-4-one] | 98 | 10 to 500 | 14
Cc1ccc(Cl)c(-n2ncc3c(=O)[nH]c(Cc4ccccc4OC(F)(F)F)nc32)c1 [Example 3, 1-(2-Chloro-5-methyl-phenyl)-6-(2-trifluoromethoxy-benzyl)-1,5-dihydro-pyrazolo[3,4-d]pyrimidin-4-one] | 95 | 10 to 500 | 4
COc1ccc(Cl)cc1-n1ncc2c(=O)[nH]c(Cc3ccccc3OC(F)(F)F)nc21 [Example 4, 1-(5-Chloro-2-methoxy-phenyl)-6-(2-trifluoromethoxy-benzyl)-1,5-dihydro-pyrazolo[3,4-d]pyrimidin-4-one] | 102 | 10 to 500 | 88
O=c1[nH]c(Cc2ccccc2OC(F)(F)F)nc2c1cnn2-c1cc(F)ccc1Cl [Example 5, 1-(2-Chloro-5-fluoro-phenyl)-6-(2-trifluoromethoxy-benzyl)-1,5-dihydro-pyrazolo[3,4-d]pyrimidin-4-one] | 96 | 10 to 500 | 7
O=c1[nH]c(Cc2ccccc2OC(F)(F)F)nc2c1cnn2-c1cc(Br)ccc1Cl [Example 6, 1-(5-Bromo-2-chloro-phenyl)-6-(2-trifluoromethoxy-benzyl)-1,5-dihydro-pyrazolo[3,4-d]pyrimidin-4-one] | 88 | 10 to 500 | 112
O=c1[nH]c(Cc2ccccc2OC(F)(F)F)nc2c1cnn2-c1cc(F)ccc1Br [Example 7, 1-(2-Bromo-5-fluoro-phenyl)-6-(2-trifluoromethoxy-benzyl)-1,5-dihydro-pyrazolo[3,4-d]pyrimidin-4-one] | 91 | 10 to 500 | 9
O=c1[nH]c(Cc2ccccc2OC(F)(F)F)nc2c1cnn2-c1cc(Cl)ccc1Br [Example 8, 1-(2-Bromo-5-chloro-phenyl)-6-(2-trifluoromethoxy-benzyl)-1,5-dihydro-pyrazolo[3,4-d]pyrimidin-4-one] | 93 | 10 to 500 | 21
O=c1[nH]c(Cc2ccccc2OC(F)(F)F)nc2c1cnn2-c1ccc(F)cc1Br [Example 9, 1-(2-Bromo-4-fluoro-phenyl)-6-(2-trifluoromethoxy-benzyl)-1,5-dihydro-pyrazolo[3,4-d]pyrimidin-4-one] | 90 | 10 to 500 | 6
Cc1ccc(Br)c(-n2ncc3c(=O)[nH]c(Cc4ccccc4OC(F)(F)F)nc32)c1 [Example 10, 1-(2-Bromo-5-methyl-phenyl)-6-(2-trifluoromethoxy-benzyl)-1,5-dihydro-pyrazolo[3,4-d]pyrimidin-4-one] | 88 | > 500 | 7
O=c1[nH]c(Cc2ccccc2OC(F)(F)F)nc2c1cnn2-c1ccc(F)cc1 [Example 11, 1-(4-Fluoro-phenyl)-6-(2-trifluoromethoxy-benzyl)-1,5-dihydro-pyrazolo[3,4-d]pyrimidin-4-one] | 47 | > 500 | 21
O=c1[nH]c(Cc2ccccc2OC(F)(F)F)nc2c1cnn2-c1ccc(F)cc1F [Example 12, 1-(2,4-Difluoro-phenyl)-6-(2-trifluoromethoxy-benzyl)-1,5-dihydro-pyrazolo[3,4-d]pyrimidin-4-one] | 102 | 10 to 500 | 8
O=c1[nH]c(Cc2ccccc2OC(F)(F)F)nc2c1cnn2-c1ccc(F)cc1Cl [Example 13, 1-(2-Chloro-4-fluoro-phenyl)-6-(2-trifluoromethoxy-benzyl)-1,5-dihydro-pyrazolo[3,4-d]pyrimidin-4-one] | 96 | 10 to 500 | 10
Cc1ccc(F)cc1-n1ncc2c(=O)[nH]c(Cc3ccccc3OC(F)(F)F)nc21 [Example 14, 1-(5-Fluoro-2-methyl-phenyl)-6-(2-trifluoromethoxy-benzyl)-1,5-dihydro-pyrazolo[3,4-d]pyrimidin-4-one] | 95 | 10 to 500 | 14
Cc1ccc(Cl)cc1-n1ncc2c(=O)[nH]c(Cc3ccccc3OC(F)(F)F)nc21 [Example 15, 1-(5-Chloro-2-methyl-phenyl)-6-(2-trifluoromethoxy-benzyl)-1,5-dihydro-pyrazolo[3,4-d]pyrimidin-4-one] | 94 | 10 to 500 | 271
O=c1[nH]c(Cc2ccccc2OC(F)(F)F)nc2c1cnn2-c1cc(Cl)ccc1Cl [Example 16, 1-(2,5-Dichloro-phenyl)-6-(2-trifluoromethoxy-benzyl)-1,5-dihydro-pyrazolo[3,4-d]pyrimidin-4-one] | 93 | 10 to 500 | 71
Cc1cc(F)ccc1-n1ncc2c(=O)[nH]c(Cc3ccccc3OC(F)(F)F)nc21 [Example 17, 1-(4-Fluoro-2-methyl-phenyl)-6-(2-trifluoromethoxy-benzyl)-1,5-dihydro-pyrazolo[3,4-d]pyrimidin-4-one] | 98 | 10 to 500 | 9
Cc1ccc(C)c(-n2ncc3c(=O)[nH]c(Cc4ccccc4OC(F)(F)F)nc32)c1 [Example 18, 1-(2,5-Dimethyl-phenyl)-6-(2-trifluoromethoxy-benzyl)-1,5-ihydro-pyrazolo[3,4-d]pyrimidin-4-one] | 86 | 10 to 500 | 28
Cc1cccc(-n2ncc3c(=O)[nH]c(Cc4ccccc4OC(F)(F)F)nc32)c1C [Example 19, 1-(2,3-Dimethyl-phenyl)-6-(2-trifluoromethoxy-benzyl)-1,5-dihydro-pyrazolo[3,4-d] pyrimidin-4-one] | 74 | 10 to 500 | 5
CCOc1ccc(Cl)c(-n2ncc3c(=O)[nH]c(Cc4ccccc4OC(F)(F)F)nc32)c1 [Example 20, 1-(2-Chloro-5-ethoxy-phenyl)-6-(2-trifluoromethoxy-benzyl)-1,5-dihydro-pyrazolo[3,4-d]pyrimidin-4-one] | 87 | 10 to 500 | 4
Cc1cc(F)c(F)cc1-n1ncc2c(=O)[nH]c(Cc3ccccc3OC(F)(F)F)nc21 [Example 21, 1-(4,5-Difluoro-2-methyl-phenyl)-6-(2-trifluoromethoxy-benzyl)-1,5-dihydro-pyrazolo[3,4-d]pyrimidin-4-one] | 91 | 10 to 500 | 93
COc1ccc(Cl)c(-n2ncc3c(=O)[nH]c(Cc4ccccc4OC(F)(F)F)nc32)c1 [Example 22, 1-(2-Chloro-5-methoxy-phenyl)-6-(2-trifluoromethoxy-benzyl)-1,5-dihydro-pyrazolo[3,4-d]pyrimidin-4-one] | 98 | 10 to 500 | 14
Cc1cc(-n2ncc3c(=O)[nH]c(Cc4ccccc4OC(F)(F)F)nc32)c(Cl)cc1F [Example 23, 1-(2-Chloro-4-fluoro-5-methyl-phenyl)-6-(2-trifluoromethoxy-benzyl)-1,5-dihydro-pyrazolo[3,4-d]pyrimidin-4-one] | 85 | > 500 | 46
Cc1cccc(Cl)c1-n1ncc2c(=O)[nH]c(Cc3ccccc3OC(F)(F)F)nc21 [Example 24, 1-(2-Chloro-6-methyl-phenyl)-6-(2-trifluoromethoxy-benzyl)-1,5-dihydro-pyrazolo[3,4-d]pyrimidin-4-one] | 87 | > 500 | 49
